The first test relates to MV-4-11 cells. Briefly: Cell Viability Assay in MV-4-11 Cells. The format is cell-based. To be noted: Homo sapiens, MV4-11, 72 h. The procedure, abridged: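 Luminescent ATP read-out (CellTiter-Glo) after 72 h compound treatment of MV-4-11 leukaemia cells (7,000 per well, IMDM plus 10% FBS). Values expressed relative to DMSO control and derived by four-parameter non-linear regression.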
In turn, `CNC(=S)Nc1ccc(-c2cc3c(N(C(=O)c4ccc(-c5cn(C)nn5)cc4F)[C@@H]4CCCNC4)nccc3s2)cc1` [Example 548, (R)-2-fluoro-4-(1-methyl-1H-1,2,3-triazol-4-yl)-N-(2-(4-(3-methylthioureido)phenyl)thieno[3,2-c]pyridin-4-yl)-N-(piperidin-3-yl)benzamide] registered an IC50 of 240 nM.

The same test, now with this note: Homo sapiens, MV4-11, 72 h, MV-4-11 cells, 72 h, Cell-Titer Glo; read-out: IC50.
For the compound `Cn1cc(-c2ccc(C(=O)N(c3nccc4sc(-c5ccc6cc[nH]c6c5)cc34)[C@@H]3CCCNC3)c(F)c2)nn1` [Example 543, 2-fluoro-N-[2-(1H-indol-6-yl)thieno [3,2-c]pyridin-4-yl]-4-(1-methyltriazol-4-yl)-N-[(3R)-3-piperidyl] benzamide], the 50% inhibitory concentration (IC50) was 310 nM. Take `Cn1cc(-c2ccc(C(=O)N(c3nccc4sc(-c5ccc6c(c5)NC(=O)C6)cc34)[C@@H]3CCCNC3)c(F)c2)nn1` [Example 544]: the IC50 was found to be 1800 nM. For `Cn1cc(-c2ccc(C(=O)N(c3nccc4sc(-c5ccc6[nH]c(=O)[nH]c6c5)cc34)[C@@H]3CCCNC3)c(F)c2)nn1` [Example 545], the IC50 worked out at 5300 nM. For the compound `Cn1cc(-c2ccc(C(=O)N(c3nccc4sc(-c5ccc6[nH]ccc6c5)cc34)[C@@H]3CCCNC3)c(F)c2)nn1` [Example 546, 2-fluoro-N-[2-(1H-indol-5-yl)thieno[3,2-c]pyridin-4-yl]-4-(1-methyltriazol-4-yl)-N-[(3R)-3-piperidyl]benzamide], the IC50 was 92 nM. Consider `CC(=O)Nc1ccc(-c2cc3c(N(C(=O)c4ccc(-c5cn(C)nn5)cc4F)[C@@H]4CCCNC4)nccc3s2)cc1` [Example 547, (R)—N-(2-(4-acetamidophenyl)thieno[3,2-c]pyridin-4-yl)-2-fluoro-4-(1-methyl-1H-1,2,3-triazol-4-yl)-N-(piperidin-3-yl)benzamide], for which the IC50 came to 480 nM. With `CNC(=O)C#Cc1cc2c(N(C(=O)c3ccc(-n4nnc5cccnc54)cc3F)[C@@H]3CCCNC3)nccc2s1` [Example 549, 2-fluoro-N-[2-[3-(methylamino)-3-oxo-prop-1-ynyl]thieno[3,2-c]pyridin-4-yl]-N-[(3R)-3-piperidyl]-4-(triazolo [4,5-b]pyridin-3-yl)benzamide], the half-inhibitory concentration (IC50) is 1500 nM. Regarding `CNC(=O)C#Cc1cc2c(N(C(=O)c3ccc(-c4cn(C)nn4)cc3F)[C@@H]3CCCNC3)nccc2s1` [Example 550, 2-fluoro-N-[2-[3-(methylamino)-3-oxo-prop-1-ynyl]thieno[3,2-c]pyridin-4-yl]-4-(1-methyltriazol-4-yl)-N-[(3R)-3-piperidyl] benzamide], the 50% inhibitory concentration (IC50) was over 6000 nM.

For `Cn1cc(-c2ccc(C(=O)N(c3nccc4sc(C#CC(C)(C)O)cc34)[C@@H]3CCCNC3)c(F)c2)nn1` [Example 551, 2-fluoro-N-[2-(3-hydroxy-3-methyl-but-1-ynyl)thieno[3,2-c]pyridin-4-yl]-4-(1-methyltriazol-4-yl)-N-[(3R)-3-piperidyl]benzamide], the 50% inhibitory concentration (IC50) worked out at 520 nM. On the same count and under the same terms, the figure for `Cn1cc(-c2ccc(C(=O)N(c3nccc4sc(C(N)=O)cc34)[C@@H]3CCCNC3)c(F)c2)nn1` [Example 552, 4-[[2-fluoro-4-(1-methyltriazol-4-yl)benzoyl]-[(3R)-3-piperidyl]amino] thieno [3,2-c] pyridine-2-carboxamide] is 910 nM; for `Nc1ccc(-c2cc3c(N(C(=O)c4ccc(-n5nnc6cccnc65)cc4F)[C@@H]4CCCNC4)nccc3s2)cn1` [Example 553, N-[2-(6-amino-3-pyridyl)thieno[3,2-c]pyridin-4-yl]-2-fluoro-N-[(3R)-3-piperidyl]-4-(triazolo[4,5-b]pyridin-3-yl)benzamide] it is 78 nM.

As for `O=C(c1ccc(-n2nnc3cccnc32)cc1F)N(c1nccc2cc(-c3ccccn3)ccc12)[C@@H]1CCCNC1` [Example 556, (R)-4-(3H-[1,2,3]triazolo[4,5-b]pyridin-3-yl)-2-fluoro-N-(piperidin-3-yl)-N-(6-(pyridin-2-yl)isoquinolin-1-yl) benzamide], the half-maximal inhibitory concentration (IC50) stood at 650 nM. Regarding `O=C(c1ccc(-n2nnc3cccnc32)cc1F)N(c1nccc2sc(-c3ccc4[nH]ncc4c3)cc12)[C@@H]1CCCNC1` [Example 557, 2-fluoro-N-[2-(1H-indazol-5-yl)thieno[3,2-c]pyridin-4-yl]-N-[(3R)-3-piperidyl]-4-(triazolo[4,5-b]pyridin-3-yl)benzamide], the IC50 came out at 130 nM. As to `Cc1cccc2ccnc(N(C(=O)c3ccc(Nc4nccc(-c5ccncc5)n4)cc3F)[C@@H]3CCCNC3)c12` [Example 558, (R)-2-fluoro-N-(8-methylisoquinolin-1-yl)-N-(piperidin-3-yl)-4-((4-(pyridin-4-yl)pyrimidin-2-yl)amino)benzamide], the half-maximal inhibitory concentration (IC50) was 11 nM.

For the compound `Cc1cccc2ccnc(N(C(=O)c3ccc(Nc4nccc(-c5ccccc5)n4)cc3F)[C@@H]3CCCNC3)c12` [Example 559, (R)-2-fluoro-N-(8-methylisoquinolin-1-yl)-4-((4-phenylpyrimidin-2-yl)amino)-N-(piperidin-3-yl)benzamide], the half-inhibitory concentration (IC50) came to 34 nM. Same read-out and setting: the figure for `O=C(c1ccc(Nc2nccc(N3CCOCC3)n2)cc1F)N(c1nccc2cc(F)ccc12)[C@@H]1CCCNC1` [Example 560, (R)-2-fluoro-N-(6-fluoroisoquinolin-1-yl)-4-((4-morpholinopyrimidin-2-yl)amino)-N-(piperidin-3-yl)benzamide] is 220 nM. On to `O=C(c1ccc(Nc2nccc(N3CCCCC3)n2)cc1F)N(c1nccc2cc(F)ccc12)[C@@H]1CCCNC1` [Example 561, (R)-2-fluoro-N-(6-fluoroisoquinolin-1-yl)-4-((4-(piperidin-1-yl)pyrimidin-2-yl)amino)-N-(piperidin-3-yl)benzamide], for which the IC50 is 1200 nM.

For `CN1CCN(c2ccnc(Nc3ccc(C(=O)N(c4nccc5cc(F)ccc45)[C@@H]4CCCNC4)c(F)c3)n2)CC1` [Example 562, (R)-2-fluoro-N-(6-fluoroisoquinolin-1-yl)-4-((4-(4-methylpiperazin-1-yl)pyrimidin-2-yl)amino)-N-(piperidin-3-yl)benzamide], the half-maximal inhibitory concentration (IC50) came out at 340 nM.

`Cn1cc(-c2ccc(C(=O)N(c3nccc4sc(C(=O)c5cccnc5)cc34)[C@@H]3CCCNC3)c(F)c2)nn1` [Example 563]: the 50% inhibitory concentration (IC50) turned out to be 340 nM. As for `Cc1cc(F)cc2ccnc(N(C(=O)c3ccc(Nc4ncccn4)cc3F)[C@@H]3CCCNC3)c12` [Example 564, (R)-2-fluoro-N-(6-fluoro-8-methylisoquinolin-1-yl)-N-(piperidin-3-yl)-4-(pyrimidin-2-ylamino)benzamide], the half-inhibitory concentration (IC50) amounted to 14 nM. As for `Nc1c(F)cc(-c2cc3c(N(C(=O)c4ccc(-n5nnc6cccnc65)cc4F)[C@@H]4CCCNC4)nccc3s2)cc1F` [Example 565, N-[2-(4-amino-3,5-difluoro-phenyl)thieno[3,2-c]pyridin-4-yl]-2-fluoro-N-[(3R)-3-piperidyl]-4-(triazolo[4,5-b]pyridin-3-yl)benzamide], the IC50 amounted to 230 nM. On the same count and under the same terms, the figure for `O=C(c1ccc(-n2nnc3cccnc32)cc1F)N(c1nccc2sc(-c3ccnc(F)c3)cc12)[C@@H]1CCCNC1` [Example 566, 2-fluoro-N-[2-(2-fluoro-4-pyridyl)thieno [3,2-c]pyridin-4-yl]-N-[(3R)-3-piperidyl]-4-(triazolo [4,5-b]pyridin-3-yl) benzamide] is 240 nM; for `NC(=O)c1ccc(-c2cc3c(N(C(=O)c4ccc(-n5nnc6cccnc65)cc4F)[C@@H]4CCCNC4)nccc3s2)cc1F` [Example 567, 2-fluoro-4-[4-[[2-fluoro-4-(triazolo[4,5-b]pyridin-3-yl)benzoyl]-[(3R)-3-piperidyl]amino]thieno[3,2-c]pyridin-2-yl]benzamide] it is 230 nM; for `NC(=O)c1cc(-c2cc3c(N(C(=O)c4ccc(-n5nnc6cccnc65)cc4F)[C@@H]4CCCNC4)nccc3s2)cs1` [Example 568, 4-[4-[[2-fluoro-4-(triazolo[4,5-b]pyridin-3-yl)benzoyl]-[(3R)-3-piperidyl]amino]thieno[3,2-c]pyridin-2-yl]thiophene-2-carboxamide] it is 89 nM. In the case of `O=C(c1ccc(-n2nnc3cccnc32)cc1F)N(c1nccc2sc(-c3ccc(B(O)O)cc3)cc12)[C@@H]1CCCNC1` [Example 569, [4-[4-[[2-fluoro-4-(triazolo[4,5-b]pyridin-3-yl)benzoyl]-[(3R)-3-piperidyl]amino]thieno[3,2-c]pyridin-2-yl]phenyl]boronic acid], the concentration for half-maximal inhibition (IC50) was found to be 570 nM. For the compound `NC(=O)Cc1ccc(-c2cc3c(N(C(=O)c4ccc(-n5nnc6cccnc65)cc4F)[C@@H]4CCCNC4)nccc3s2)cc1` [Example 570, N-[2-[4-(2-amino-2-oxo-ethyl)phenyl]thieno[3,2-c]pyridin-4-yl]-2-fluoro-N-[(3R)-3-piperidyl]-4-(triazolo[4,5-b]pyridin-3-yl)benzamide], the IC50 is 110 nM. As for `Cc1cc(-c2cc3c(N(C(=O)c4ccc(-n5nnc6cccnc65)cc4F)[C@@H]4CCCNC4)nccc3s2)cc(C)n1` [Example 571, N-[2-(2,6-dimethyl-4-pyridyl)thieno[3,2-c]pyridin-4-yl]-2-fluoro-N-[(3R)-3-piperidyl]-4-(triazolo[4,5-b]pyridin-3-yl)benzamide], the IC50 came out at 63 nM. On to `Cc1cc(-c2cc3c(N(C(=O)c4ccc(-n5nnc6cccnc65)cc4F)[C@@H]4CCCNC4)nccc3s2)ccc1C(N)=O` [Example 572, 4-[4-[[2-fluoro-4-(triazolo [4,5-b]pyridin-3-yl)benzoyl]-[(3R)-3-piperidyl]amino]thieno [3,2-c]pyridin-2-yl]-2-methyl-benzamide], for which the IC50 worked out at 89 nM. Consider `NC(=O)c1ccc(-c2cc3c(N(C(=O)c4ccc(-n5nnc6cccnc65)cc4F)[C@@H]4CCCNC4)nccc3s2)cc1C(F)(F)F` [Example 573, 4-[4-[[2-fluoro-4-(triazolo [4,5-b]pyridin-3-yl)benzoyl]-[(3R)-3-piperidyl]amino]thieno [3,2-c]pyridin-2-yl]-2-(trifluoromethyl) benzamide], for which the IC50 worked out at 230 nM.

As usually defined, the IC50 is the point on the concentration scale where inhibition reaches its midpoint.

Values taken from patent US20240400555A1 (Initial Therapeutics, Inc., priority 2023, published 2024).
